The source made the active and inactive calls. No rule for the calls is given here.
Test system: CCRIS mutagenicity, Ames/micronucleus/aberration tests
Assay: CCRIS mutagenicity studies
[1] = Test System: AMES SALMONELLA TYPHIMURIUM, Strain/Indicator: TA98, Metabolic Activation: NONE, Method: PREINCUBATION
[2] = Test System: AMES SALMONELLA TYPHIMURIUM, Strain/Indicator: TA100, Metabolic Activation: NONE, Method: PREINCUBATION

Measured: mutagenic call

CC(=O)OCc1cocc2c(C=O)ccc1-2
active: Test System: AMES SALMONELLA TYPHIMURIUM, Strain/Indicator: TA98, Metabolic Activation: NONE, Method: STANDARD PLATE active; positive | Test System: AMES SALMONELLA TYPHIMURIUM, Strain/Indicator: TA98, Metabolic Activation: RAT, LIVER, S-9, AROCLOR 1254, Method: STANDARD PLATE active; positive | Test System: AMES SALMONELLA TYPHIMURIUM, Strain/Indicator: TA100, Metabolic Activation: NONE, Method: STANDARD PLATE active; positive | Test System: AMES SALMONELLA TYPHIMURIUM, Strain/Indicator: TA100, Metabolic Activation: RAT, LIVER, S-9, AROCLOR 1254, Method: STANDARD PLATE active; positive
inactive: Test System: AMES SALMONELLA TYPHIMURIUM, Strain/Indicator: TA1535, Metabolic Activation: NONE, Method: STANDARD PLATE inactive; negative | Test System: AMES SALMONELLA TYPHIMURIUM, Strain/Indicator: TA1535, Metabolic Activation: RAT, LIVER, S-9, AROCLOR 1254, Method: STANDARD PLATE inactive; negative | Test System: AMES SALMONELLA TYPHIMURIUM, Strain/Indicator: TA1537, Metabolic Activation: NONE, Method: STANDARD PLATE inactive; negative | Test System: AMES SALMONELLA TYPHIMURIUM, Strain/Indicator: TA1537, Metabolic Activation: RAT, LIVER, S-9, AROCLOR 1254, Method: STANDARD PLATE inactive; negative

Oc1c(Br)c(Br)c(Br)c(Br)c1Br
inactive: Test System: AMES SALMONELLA TYPHIMURIUM, Strain/Indicator: TA98, Metabolic Activation: HAMSTER, LIVER, S-9, AROCLOR 1254 (10%), Method: PREINCUBATION inactive; negative | [1] inactive; negative | Test System: AMES SALMONELLA TYPHIMURIUM, Strain/Indicator: TA98, Metabolic Activation: RAT, LIVER, S-9, AROCLOR 1254 (10%), Method: PREINCUBATION inactive; negative | Test System: AMES SALMONELLA TYPHIMURIUM, Strain/Indicator: TA100, Metabolic Activation: HAMSTER, LIVER, S-9, AROCLOR 1254 (10%), Method: PREINCUBATION inactive; negative | [2] inactive; negative | Test System: AMES SALMONELLA TYPHIMURIUM, Strain/Indicator: TA100, Metabolic Activation: RAT, LIVER, S-9, AROCLOR 1254 (10%), Method: PREINCUBATION inactive; negative | Test System: AMES SALMONELLA TYPHIMURIUM, Strain/Indicator: TA1535, Metabolic Activation: HAMSTER, LIVER, S-9, AROCLOR 1254 (10%), Method: PREINCUBATION inactive; negative | Test System: AMES SALMONELLA TYPHIMURIUM, Strain/Indicator: TA1535, Metabolic Activation: NONE, Method: PREINCUBATION inactive; negative | Test System: AMES SALMONELLA TYPHIMURIUM, Strain/Indicator: TA1535, Metabolic Activation: RAT, LIVER, S-9, AROCLOR 1254 (10%), Method: PREINCUBATION inactive; negative | Test System: AMES SALMONELLA TYPHIMURIUM, Strain/Indicator: TA1537, Metabolic Activation: HAMSTER, LIVER, S-9, AROCLOR 1254 (10%), Method: PREINCUBATION inactive; negative | Test System: AMES SALMONELLA TYPHIMURIUM, Strain/Indicator: TA1537, Metabolic Activation: NONE, Method: PREINCUBATION inactive; negative | Test System: AMES SALMONELLA TYPHIMURIUM, Strain/Indicator: TA1537, Metabolic Activation: RAT, LIVER, S-9, AROCLOR 1254 (10%), Method: PREINCUBATION inactive; negative

c1ccc2c(c1)-c1c3ccccc3cc3cc4ccccc4c-2c13
active: Test System: HUMAN H1A1V2 CELLS, Strain/Indicator: TK LOCUS, Metabolic Activation: NONE, Method: SUSPENSION/PLATE active; positive

CC(Cl)CO (stereo not drawn)
active: Test System: AMES SALMONELLA TYPHIMURIUM, Strain/Indicator: TA1530, Metabolic Activation: NONE, Method: STANDARD PLATE active; positive | Test System: AMES SALMONELLA TYPHIMURIUM, Strain/Indicator: TA1535, Metabolic Activation: RAT, LIVER, S-9, PCB, Method: STANDARD PLATE active; positive

Oc1cc(O)c2c(c1)O[C@H](c1ccc(O)c(O)c1)[C@H](O)C2
inactive: Test System: Ames Salmonella typhimurium, Strain/Indicator: TA102, Metabolic Activation: None, Method: Preincubation inactive; negative | Test System: Ames Salmonella typhimurium, Strain/Indicator: TA102, Metabolic Activation: Rat, Liver, S-9, Aroclor 1254 in 0.154 M KCl, Method: Preincubation inactive; negative

O=C(Cl)c1ccccc1Cl
inactive: [1] inactive; negative | Test System: E.COLI, Strain/Indicator: WP2 UVRA, Metabolic Activation: NONE, Method: PREINCUBATION inactive; negative
active: Test System: AMES SALMONELLA TYPHIMURIUM, Strain/Indicator: TA98, Metabolic Activation: RAT LIVER S-9, PCB, Method: PREINCUBATION active; positive | [2] active; positive | Test System: AMES SALMONELLA TYPHIMURIUM, Strain/Indicator: TA100, Metabolic Activation: RAT LIVER S-9, PCB, Method: PREINCUBATION active; positive | Test System: AMES SALMONELLA TYPHIMURIUM, Strain/Indicator: TA104, Metabolic Activation: NONE, Method: PREINCUBATION active; positive | Test System: AMES SALMONELLA TYPHIMURIUM, Strain/Indicator: TA104, Metabolic Activation: RAT LIVER S-9 PCB, Method: PREINCUBATION active; positive | Test System: E.COLI, Strain/Indicator: WP2 UVRA, Metabolic Activation: RAT LIVER S-9, PCB, Method: PREINCUBATION active; positive

Source: PubChem BioAssay AID1259407 (Chemical Carcinogenesis Research Information System (CCRIS), 2018)
